Four molecules from patent US12715844B2, “Compound, preparation method therefor, composition, kit and use thereof” (SIGNDO BIOTECHNOLOGY (SUZHOU) CO., LTD, priority 2023, dated 2026) can be followed below.

The target in one data set is T1, PSMA receptor (Homo sapiens, UniProt Q04609).
T1 construct: endogenous in cells; host or cells: 22RV1 (PSMA+); PC3 (PSMA−) as negative control
Put plainly: Receptor binding detected by flow cytometry in vitro (competitive binding with DUPA-FITC). The following applies: 22RV1 (PSMA+) cells, competition with 100 nmol/L DUPA-FITC. An excerpt:
1. Receptor Binding was Detected by Flow Cytometry In Vitro:
Prostate-specific membrane antigen (PSMA) is overexpressed on prostate cancer cells. Both DUPA-FITC and DGPR1008 are capable of targeting the PSMA receptor in prostate cancer cells, with the difference being that DUPA-FITC is connected to a visible light dye (Ex=495 nm, Em=520 nm), whereas DGPR1008 is connected to a near-infrared dye (Ex=776 nm, Em=793 nm). Since the majority types of lasers equipped in flow cytometers operate within the visible light spectrum, the binding affinity of DGPR1008 to the receptor can not be directly measured. Therefore, the competitive binding of DGPR1008 with DUPA-FITC to PSMA is employed to indirectly assess the binding affinity of the test compound to the receptor.
DGPR1008, DUPA-FITC, 22RV1 (PSMA+), PC3 (PSMA−), 1640 culture medium, FBS, double antibiotics, trypsin, centrifuge, 4° C. constant temperature incubator, flow cytometer.
Drug preparation: 100 nmol/L DUPA-FITC was prepared using culture medium. The test compound was diluted to nine concentrations (0.00098 μM, 0.002 μM, 0.008 μM, 0.01 μM, 0.03 μM, 0.05 μM, 0.09 μM, 0.1 μM, and 0.125 μM) using culture medium containing 100 nmol/L DUPA-FITC, with three replicate wells for each concentration.
Cell culture: The cells were seeded in T75 culture flasks. After 48 h, cells in the logarithmic growth phase were taken, digested with trypsin for 1-2 min, and the digestion was then terminated by adding fresh culture medium. After cell counting, the cells were transferred into a 96-well plate (1×10^5 cells/well), totaling 27 wells. The culture medium was discarded by centrifugation (800 rpm, 5 min), and the cells were washed twice with PBS and then centrifuged to collect the cell pellet. The prepared culture media with 9 concentrations were added to the cell-containing wells, with three replicates for each concentration. The cells were incubated at 4° C. in the dark for 30 min, and then the culture medium in the wells was discarded. Cells were washed by adding 300 μL of fresh culture medium (twice) and saline (once) to each well, followed by resuspension in 300 μL of saline for flow cytometry detection.

In data set [1] the test system is 22RV1 (PSMA+). Put plainly: 2-hour ex vivo tissue distribution: fluorescence of tumor and in situ normal prostate. Also on record: species or system mice. Conditions: for discrimination capability (tumor vs normal prostate) compared with OTL78: relative to OTL78; for Prostate fluorescence / Tumor fluorescence / T/P Ratio: 2 h ex vivo, 10 nmol/mouse; for T/P Ratio: tumor to in situ normal prostate. An excerpt:
(§1) The Prostate-specific membrane antigen (PSMA) is overexpressed on prostate cancer cells. The test compound is a PSMA-targeting molecule conjugated with a near-infrared region I dye. The test compound can bind to PSMA and “illuminate” cancer cells upon excitation by a near-infrared light source. In this experiment, the in vivo and ex vivo tissue distribution of the test compound in mice is detected using in vivo live imaging.
(§2) Matrigel was thawed on ice in advance, and the culture medium was pre-cooled on ice. After centrifugation, the cells were resuspended in the pre-cooled culture medium, followed by the addition of HC Matrigel gel in a volume equal to the culture medium. The centrifuge tube containing the cells was placed on ice and transferred to the animal facility. The cells were thoroughly dispersed before inoculation. The back of the neck was disinfected with an alcohol cotton ball, and a single intravenous administration was performed with an inoculation volume of 200 μL per mouse. All operations were performed on ice. When the tumor volume reached 300-400 mm^3, the mice were grouped for administration. Six mice with well-grown and regularly shaped tumors were selected into the group. The six mice were randomly divided into two groups: G1 (OTL78 10 nmol/mouse) and G2 (DGPR1008 10 nmol/mouse) with three mice in each group. The scanning time: 1, 2, 4, 8, 24, and 72 h.
(2) Results of 2-Hour Ex Vivo Tissue Distribution: Fluorescence Ratio of Tumor to In Situ Normal Prostate: […]

Data set [2] relates to 22RV1 (PSMA+). Put plainly: Drug efficacy validation by in vivo live imaging, three dose groups. Also on record: species or system mice. Conditions: for targeting properties: 22RV1 tumor mice, in vivo live imaging; for enrichment in the prostate cancer tumor site: high, medium and low doses (25, 50, 100 nmol/mouse), scans 1-48 h. An excerpt:
(§3) “V” denotes the volume-to-mass ratio. […] Mice refer to BALB/c nude mice, 6-8 weeks old, weighing 18-20 g; rats refer to SD rats: 8 weeks old, approximately 250 g.
2. Drug Efficacy Validation Experiment Using In Vivo Live Imaging
Prostate-specific membrane antigen (PSMA) is overexpressed on prostate cancer cells. The test compound is a PSMA-targeting molecule conjugated with a near-infrared region I dye. The test compound can bind to PSMA and “illuminate” cancer cells upon excitation by a near-infrared light source. In this experiment, the in vivo tissue distribution of the test compound in mice is detected using in vivo live imaging.
DGPR1008, 22RV1 (PSMA+), PC3 (PSMA−), 1640 culture medium, FBS, double antibodies, trypsin, Matrigel (BD), vernier caliper, centrifuge, IVIS live imager.
Matrigel was thawed on ice in advance, and the culture medium was pre-cooled on ice. After centrifugation, the cells were resuspended in the pre-cooled culture medium, followed by the addition of HC Matrigel gel in a volume equal to the culture medium. The centrifuge tube containing the cells was placed on ice and transferred to the animal facility. The cells were thoroughly dispersed before inoculation. The right dorsal shoulder area of the mice was disinfected with an alcohol cotton ball, and a single intravenous administration was performed with an inoculation volume of 200 μL per mouse. All operations were performed on ice. When the tumor volume reached 300-400 mm^3, the mice were grouped for administration. Nine mice with well-grown and regularly shaped tumors were selected into the group. The nine mice were randomly divided into three groups: G1 (25 nmol/mouse), G2 (50 nmol/mouse), and G3 (100 nmol/mouse), with three mice in each group. The scanning time: 1, 2, 4, 8, 24, and 48 h.

The subject of data set [3] is 22RV1 (PSMA+). Description: In vivo live imaging comparison with the existing product OTL78. The arrangement: species or system mice. The following applies: for TBR (tumor-to-background ratio), in words: from about 2 h to 72 h; for fluorescence value at the tumor site compared with OTL78: mice, each time point; for TBR compared with OTL78: relative to OTL78; for TBR (mean) / fluorescence value at the tumor site: 10 nmol/mouse; for TBR (mean): 200 μL/mouse.
Excerpt: as §3
3. Comparison with the Existing Product OTL78
as §1
DGPR1008, 22RV1 (PSMA+), BALB/c nude mouse, 1640 culture medium, FBS, double antibodies, trypsin, Matrigel (BD), vernier caliper, centrifuge, IVIS live imager.
as §2
(1) Results and Data of In Vivo Live Imaging of Drug Efficacy (Mice were Used as Experimental Subjects in this Part)

The nature of data set [4]: Pharmacokinetic parameters in rat plasma. It counts as in vivo. The following applies: for clearance in rats in vivo, in words: compared with OTL78.
Data set [5] is described as follows: Acute toxicity experiment on rats. The following applies: three dose groups of high, medium and low doses.

“And” between values parts separate entries of the source, which are not always exact repeats. Identical values can stand only once.

T1 sequence (Q04609 whole entry): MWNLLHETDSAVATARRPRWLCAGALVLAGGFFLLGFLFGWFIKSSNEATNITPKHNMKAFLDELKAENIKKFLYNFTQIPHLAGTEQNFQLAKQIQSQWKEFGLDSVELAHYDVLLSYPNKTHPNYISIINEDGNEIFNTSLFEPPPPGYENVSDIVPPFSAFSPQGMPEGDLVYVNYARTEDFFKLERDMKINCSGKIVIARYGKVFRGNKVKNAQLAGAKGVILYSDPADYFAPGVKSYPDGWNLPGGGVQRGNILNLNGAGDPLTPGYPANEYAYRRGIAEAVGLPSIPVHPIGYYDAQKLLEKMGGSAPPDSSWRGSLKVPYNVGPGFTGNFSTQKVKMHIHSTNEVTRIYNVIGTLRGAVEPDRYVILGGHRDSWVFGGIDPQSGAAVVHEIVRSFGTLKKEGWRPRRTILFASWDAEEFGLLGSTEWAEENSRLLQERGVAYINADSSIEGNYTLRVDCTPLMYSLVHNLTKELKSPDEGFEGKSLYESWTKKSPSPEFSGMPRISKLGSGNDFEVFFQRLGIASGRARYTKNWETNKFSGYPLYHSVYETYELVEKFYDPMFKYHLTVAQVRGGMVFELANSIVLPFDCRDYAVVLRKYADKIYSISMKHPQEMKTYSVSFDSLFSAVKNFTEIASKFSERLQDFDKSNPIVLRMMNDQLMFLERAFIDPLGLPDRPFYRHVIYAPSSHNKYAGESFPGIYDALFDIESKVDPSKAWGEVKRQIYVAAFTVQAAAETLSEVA

As to `CC1(C)C(=CC=C2CCCC(C=CC3=[N+](CCCCS(=O)(=O)[O-])c4ccc(S(=O)(=O)[O-])cc4C3(C)C)=C2Oc2ccc(CC(NC(=O)CCOCCCOCCCOCCOCCOCCNC(=O)CCC(NC(=O)NC(CCC(=O)[O-])C(=O)[O-])C(=O)[O-])C(=O)[O-])cc2)N(CCCCS(=O)(=O)[O-])c2ccc(S(=O)(=O)[O-])cc21.[Na+].[Na+].[Na+].[Na+].[Na+].[Na+].[Na+]` (centres unmarked) [Example 41], the “binding affinity to PSMA receptor” value on PSMA receptor is “good affinity”. Besides, in the data set with 22RV1 (PSMA+) [1], the “discrimination capability (tumor vs normal prostate) compared with OTL78” value was “approximately 5 fold”. Also, in the data set on 22RV1 (PSMA+) [2], the targeting properties result is on record as “good targeting properties” and the “enrichment in the prostate cancer tumor site” value (“enrichment” for short) is “enriched in the prostate cancer tumor site”. Moreover, in the data set on 22RV1 (PSMA+) [3], the “TBR (tumor-to-background ratio), in words” value is “good TBR”; the “fluorescence value at the tumor site compared with OTL78” value was “greater fluorescence values at the tumor site than OTL78”; the “TBR compared with OTL78” value is “higher TBR”. In addition, in data set [4], the “clearance in rats in vivo, in words” value is listed as “cleared more rapidly”. In addition, the “toxic reactions in acute toxicity experiment” value (shortened to “toxic reactions”) in data set [5] is on record as “no toxic reactions were observed”.
Consider `CC1(C)C(=CC=C2CCCC(C=CC3=[N+](CCCCS(=O)(=O)[O-])c4ccc(S(=O)(=O)[O-])cc4C3(C)C)=C2Oc2ccc(CC(NC(=O)CCOCCOCCNC(=O)CCC(NC(=O)NC(CCC(=O)[O-])C(=O)[O-])C(=O)[O-])C(=O)[O-])cc2)N(CCCCS(=O)(=O)[O-])c2ccc(S(=O)(=O)[O-])cc21.[K+].[K+].[K+].[K+].[K+].[K+].[K+]` (centres unmarked) [Example 12], for which, at PSMA receptor, the “binding affinity to PSMA receptor” value is “good affinity”. The “discrimination capability (tumor vs normal prostate) compared with OTL78” value in the data set on 22RV1 (PSMA+) [1] is on record as “approximately 5 fold”. For the same molecule, in the data set with 22RV1 (PSMA+) [2], the targeting properties result is listed as “good targeting properties” and the “enrichment” value is “enriched in the prostate cancer tumor site”. Moreover, in the data set with 22RV1 (PSMA+) [3], the “TBR (tumor-to-background ratio), in words” value is “good TBR”; the “fluorescence value at the tumor site compared with OTL78” value is on record as “greater fluorescence values at the tumor site than OTL78”; the “TBR compared with OTL78” value is listed as “higher TBR”. Besides, the “clearance in rats in vivo, in words” value in data set [4] is recorded as “cleared more rapidly”. Also, the “toxic reactions” value in data set [5] was “no toxic reactions were observed”.
Turning to `CC1(C)C(/C=C/C2=C(Oc3ccc(C[C@H](NC(=O)[C@H](Cc4ccccc4)NC(=O)CCOCCOCCNC(=O)CC[C@H](NC(=O)N[C@@H](CCC(=O)O)C(=O)O)C(=O)O)C(=O)O)cc3)C(=C/C=C3/N(CCCCS(=O)(=O)O)c4ccc(S(=O)(=O)O)cc4C3(C)C)/CCC2)=[N+](CCCCS(=O)(=O)[O-])c2ccc(S(=O)(=O)O)cc21` [OTL78, reference compound], the Prostate fluorescence is 3.27E+09 photon/second in the data set with 22RV1 (PSMA+) [1] (group mean); 4.77E+08 photon/second and 8.11E+09 photon/second and 1.23E+09 photon/second in the data set on 22RV1 (PSMA+) [1] (individual animal). In addition, the Tumor fluorescence with 22RV1 (PSMA+) [1] (group mean) is 7.26E+09 photon/second; in the data set on 22RV1 (PSMA+) [1] (individual animal) it was 7.07E+09 photon/second and 1.01E+10 photon/second and 4.61E+09 photon/second. Further, the “T/P Ratio” value was 6.61 in the data set on 22RV1 (PSMA+) [1] (group mean); 14.8 and 1.25 and 3.75 in the data set on 22RV1 (PSMA+) [1] (individual animal). For the same molecule, the “TBR (mean)” value in the data set on 22RV1 (PSMA+) [3] (1 h) is reported as 1.30; in the data set on 22RV1 (PSMA+) [3] (2 h), 1.35; in the data set with 22RV1 (PSMA+) [3] (4 h), 1.38; with 22RV1 (PSMA+) [3] (8 h), 1.36; in the data set with 22RV1 (PSMA+) [3] (24 h), 1.55; with 22RV1 (PSMA+) [3] (72 h), 1.65. Moreover, the “fluorescence value at the tumor site” value stood at 8.75E+09 in the data set with 22RV1 (PSMA+) [3] (1 h); 6.58E+09 in the data set with 22RV1 (PSMA+) [3] (2 h); 3.27E+09 with 22RV1 (PSMA+) [3] (4 h); 1.71E+09 in the data set with 22RV1 (PSMA+) [3] (8 h); 1.41E+09 in the data set on 22RV1 (PSMA+) [3] (24 h); 9.69E+08 in the data set with 22RV1 (PSMA+) [3] (72 h). Further, the “average AUC0-t” value in data set [4] (rats, 2 mg/kg, plasma) stood at 9429 ng·h/mL. This molecule displayed an average clearance in data set [4] (rats, 2 mg/kg, plasma) of 3.50 mL/min/kg.
With `CC1(C)C(=CC=C2CCCC(C=CC3=[N+](CCCCS(=O)(=O)[O-])c4ccc(S(=O)(=O)[O-])cc4C3(C)C)=C2Oc2ccc(CC(NC(=O)CCOCCCOCCCCCOCCOCCNC(=O)CCC(NC(=O)NC(CCC(=O)[O-])C(=O)[O-])C(=O)[O-])C(=O)[O-])cc2)N(CCCCS(=O)(=O)[O-])c2ccc(S(=O)(=O)[O-])cc21.[Na+].[Na+].[Na+].[Na+].[Na+].[Na+].[Na+]` (centres unmarked) [Example 51], the “binding affinity to PSMA receptor” value at PSMA receptor is “good affinity”. For the same molecule, the “discrimination capability (tumor vs normal prostate) compared with OTL78” value with 22RV1 (PSMA+) [1] is “approximately 5 fold”. Further, in the data set with 22RV1 (PSMA+) [2], the targeting properties entry is listed as “good targeting properties” and the “enrichment” value was “enriched in the prostate cancer tumor site”. Moreover, in the data set on 22RV1 (PSMA+) [3], the “TBR (tumor-to-background ratio), in words” value is given as “good TBR”; the “fluorescence value at the tumor site compared with OTL78” value was “greater fluorescence values at the tumor site than OTL78”; the “TBR compared with OTL78” value is reported as “higher TBR”. Further, the “clearance in rats in vivo, in words” value in data set [4] is “cleared more rapidly”. In addition, in data set [5], the “toxic reactions” value is reported as “no toxic reactions were observed”.
